Assays:
Type in all cases: cell-based
K-562 = experiment: SRB colorimetric cell growth inhibition assay, K-562; details: Homo sapiens, K562, K-562; for GI50: GI=growth inhibition, read-out: GI50 K-562; for CC50: cell killing (cytotoxic effect), read-out: LC50 K-562; for IC (TGI): total growth inhibition (cytostatic effect), read-out: TGI K-562
In short: (§1)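 Cancer cells grown in vitro were continuously treated with compound. Cell mass was then determined by SRB staining and expressed as growth inhibition.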

A-549 = experiment: SRB colorimetric cell growth inhibition assay, A-549; details: Homo sapiens, A549, A-549; for GI50: GI=growth inhibition, read-out: GI50 A-549; for CC50: cell killing (cytotoxic effect), read-out: LC50 A-549; for IC (TGI): total growth inhibition (cytostatic effect), read-out: TGI A-549
In short: as §1

SK-MEL-28 = experiment: SRB colorimetric cell growth inhibition assay, SK-MEL-28; details: Homo sapiens, SK-MEL-28, MEL-28; for GI50: GI=growth inhibition, read-out: GI50 MEL-28; for CC50: LC=cell killing (cytotoxic effect), read-out: LC50 MEL-28; for IC (TGI): TGI=total growth inhibition (cytostatic effect), read-out: TGI MEL-28
In short: as §1

HT-29 = experiment: SRB colorimetric cell growth inhibition assay, HT-29; details: Homo sapiens, HT-29, HT-29; for GI50: GI=growth inhibition, read-out: GI50 HT-29; for CC50: cell killing (cytotoxic effect), read-out: LC50 HT-29; for IC (TGI): total growth inhibition (cytostatic effect), read-out: TGI HT-29
In short: as §1

LoVo = experiment: SRB colorimetric cell growth inhibition assay, LoVo; details: Homo sapiens, LoVo; for GI50: GI=growth inhibition, read-out: GI50 LOVO; for CC50: cell killing (cytotoxic effect), read-out: LC50 LOVO; for IC (TGI): total growth inhibition (cytostatic effect), read-out: TGI LOVO
In short: as §1

LoVo-Dox = experiment: SRB colorimetric cell growth inhibition assay, LoVo-Dox (MDR); details: Homo sapiens, LOVO-DOX; for GI50: GI=growth inhibition, read-out: GI50 LOVO-DOX; for CC50: cell killing (cytotoxic effect), read-out: LC50 LOVO-DOX; for IC (TGI): total growth inhibition (cytostatic effect), read-out: TGI LOVO-DOX
In short: as §1

DU-145 = experiment: SRB colorimetric cell growth inhibition assay, DU-145; details: Homo sapiens, DU-145, DU-145; for GI50: GI=growth inhibition, read-out: GI50 DU-145; for CC50: LC=cell killing (cytotoxic effect), read-out: LC50 DU-145; for IC (TGI): TGI=total growth inhibition (cytostatic effect), read-out: TGI DU-145
In short: as §1

LNCaP = experiment: SRB colorimetric cell growth inhibition assay, LNCaP; details: Homo sapiens, LNCaP, LN-caP; for GI50: GI=growth inhibition, read-out: GI50 LN-caP; for CC50: LC=cell killing (cytotoxic effect), read-out: LC50 LN-caP; for IC (TGI): TGI=total growth inhibition (cytostatic effect), read-out: TGI LN-caP
In short: as §1

SK-BR-3 = experiment: SRB colorimetric cell growth inhibition assay, SK-BR-3; details: Homo sapiens, SK-BR-3, SK-BR-3; for GI50: GI=growth inhibition, read-out: GI50 SK-BR-3; for CC50: LC=cell killing (cytotoxic effect), read-out: LC50 SK-BR-3; for IC (TGI): TGI=total growth inhibition (cytostatic effect), read-out: TGI SK-BR-3
In short: as §1

IGROV = experiment: SRB colorimetric cell growth inhibition assay, IGROV; details: Homo sapiens, IGROV; for GI50: GI=growth inhibition, read-out: GI50 IGROV; for CC50: LC=cell killing (cytotoxic effect), read-out: LC50 IGROV; for IC (TGI): TGI=total growth inhibition (cytostatic effect), read-out: TGI IGROV
In short: as §1

IGROV-ET = experiment: SRB colorimetric cell growth inhibition assay, IGROV-ET (ET-743 resistant); details: Homo sapiens, IGROV-ET; for GI50: GI=growth inhibition, read-out: GI50 IGROV-ET; for CC50: LC=cell killing (cytotoxic effect), read-out: LC50 IGROV-ET; for IC (TGI): TGI=total growth inhibition (cytostatic effect), read-out: TGI IGROV-ET
In short: as §1

PANC-1 = experiment: SRB colorimetric cell growth inhibition assay, PANC-1; details: Homo sapiens, PANC-1, PANC-1; for GI50: GI=growth inhibition, read-out: GI50 PANC-1; for CC50: cell killing (cytotoxic effect), read-out: LC50 PANC-1; for IC (TGI): total growth inhibition (cytostatic effect), read-out: TGI PANC-1
In short: as §1

SKOV-3 = experiment: SRB colorimetric cell growth inhibition assay, SKOV-3; details: Homo sapiens; for GI50: SK-OV-3, SKOV-3, GI=growth inhibition, read-out: GI50 SKOV-3; for CC50 / IC (TGI): SK-OV-3, SKOV-3; for CC50: LC=cell killing (cytotoxic effect), read-out: LC50 SKOV-3; for IC (TGI): TGI=total growth inhibition (cytostatic effect), read-out: TGI SKOV-3
In short: (§2)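 SRB colorimetric readout of cell growth/viability in 96-well format. Means ± SD from triplicate wells; GI (growth inhibition), TGI (total growth inhibition, cytostatic) and LC (cell killing, cytotoxic) parameters derived.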

[1] = SRB colorimetric cell growth inhibition assay, H-MEC-1; details: human, H-MEC-1 cells, H-MEC-1; LC=cell killing (cytotoxic effect); read-out: LC50 H-MEC-1
In short: as §2

H-MEC-1 = experiment: as above; details: Homo sapiens, HMEC-1, H-MEC-1; for GI50: GI=growth inhibition; for IC (TGI): TGI=total growth inhibition (cytostatic effect), read-out: TGI H-MEC-1
In short: as §2

COc1cc(-c2c3n(c4c(=O)oc5cc(OC(=O)[C@@H](N)Cc6ccccc6)c(OC)cc5c24)CCc2cc(OC(=O)[C@@H](N)Cc4ccccc4)c(OC)cc2-3)ccc1OC(=O)[C@@H](N)Cc1ccccc1 [Compound 115]
GI50 (K-562): 536 nM
CC50 (K-562): 7.78 µM
IC (TGI) (K-562): 2.47 µM
GI50 (A-549): 1.65 µM
CC50 (A-549): 5.87 µM
IC (TGI) (A-549): 3.11 µM
GI50 (SK-MEL-28): 1.45 µM
CC50 (SK-MEL-28): 4.83 µM
IC (TGI) (SK-MEL-28): 2.65 µM
GI50 (HT-29): 2.92 µM
CC50 (HT-29): 7.78 µM
IC (TGI) (HT-29): 6.46 µM
GI50 (LoVo): 0.703 µM
CC50 (LoVo): 4.41 µM
IC (TGI) (LoVo): 1.82 µM
GI50 (LoVo-Dox): 1.76 µM
CC50 (LoVo-Dox): 7.78 µM
IC (TGI) (LoVo-Dox): 4.78 µM
GI50 (DU-145): 1.63 µM
CC50 (DU-145): 7.78 µM
IC (TGI) (DU-145): 4.29 µM
GI50 (LNCaP): 670 nM
CC50 (LNCaP): 3.87 µM
IC (TGI) (LNCaP): 1.67 µM
GI50 (SK-BR-3): 1.87 µM
CC50 (SK-BR-3): 7.53 µM
IC (TGI) (SK-BR-3): 3.75 µM
GI50 (IGROV): 1070 nM
CC50 (IGROV): 6.26 µM
IC (TGI) (IGROV): 2.58 µM
GI50 (IGROV-ET): 1.7 µM
CC50 (IGROV-ET): 7.78 µM
IC (TGI) (IGROV-ET): 5.38 µM
GI50 (PANC-1): 2.47 µM
CC50 (PANC-1): 7.78 µM
IC (TGI) (PANC-1): 7.78 µM
GI50 (SKOV-3): 1.1 µM
CC50 (SKOV-3): 5.13 µM
IC (TGI) (SKOV-3): 2.38 µM
CC50 [1]: 2.96 µM
GI50 (H-MEC-1): 213 nM
IC (TGI) (H-MEC-1): 0.452 µM

COc1cc(-c2c3n(c4c(=O)oc5cc(OC(=O)c6cc(F)c(F)c(F)c6F)c(OC)cc5c24)CCc2c-3cc(OC)c(OC)c2OC(=O)c2cc(F)c(F)c(F)c2F)ccc1OC(=O)c1cc(F)c(F)c(F)c1F [Compound 99]
GI50 (K-562): 972 nM
CC50 (K-562): 2.26 µM
IC (TGI) (K-562): 1.48 µM
GI50 (A-549): 9.44 µM
CC50 (A-549): 9.44 µM
IC (TGI) (A-549): 9.44 µM
GI50 (SK-MEL-28): 9.44 µM
CC50 (SK-MEL-28): 9.44 µM
IC (TGI) (SK-MEL-28): 9.44 µM
GI50 (HT-29): 9.44 µM
CC50 (HT-29): 9.44 µM
IC (TGI) (HT-29): 9.44 µM
GI50 (LoVo): 9.44 µM
CC50 (LoVo): 9.44 µM
IC (TGI) (LoVo): 9.44 µM
GI50 (LoVo-Dox): 9.44 µM
CC50 (LoVo-Dox): 9.44 µM
IC (TGI) (LoVo-Dox): 9.44 µM
GI50 (DU-145): 9.44 µM
CC50 (DU-145): 9.44 µM
IC (TGI) (DU-145): 9.44 µM
GI50 (LNCaP): 4460 nM
CC50 (LNCaP): 9.44 µM
IC (TGI) (LNCaP): 8.19 µM
GI50 (SK-BR-3): 9.44 µM
CC50 (SK-BR-3): 9.44 µM
IC (TGI) (SK-BR-3): 9.44 µM
GI50 (IGROV): 3070 nM
CC50 (IGROV): 9.44 µM
IC (TGI) (IGROV): 9.44 µM
GI50 (IGROV-ET): 9.44 µM
CC50 (IGROV-ET): 9.44 µM
IC (TGI) (IGROV-ET): 9.44 µM
GI50 (PANC-1): 9.44 µM
CC50 (PANC-1): 9.44 µM
IC (TGI) (PANC-1): 9.44 µM
GI50 (SKOV-3): 9.44 µM
CC50 (SKOV-3): 9.44 µM
IC (TGI) (SKOV-3): 9.44 µM
CC50 [1]: 7.42 µM
GI50 (H-MEC-1): 4060 nM
IC (TGI) (H-MEC-1): 5.48 µM
